pIC50: −log10 of the molar value. Read-outs that look alike come from different tables or passages of the source.
What was measured:
human HPK1 [1] = biological target: T1, human HPK1 (Homo sapiens, UniProt Q92918); experiment: HPK1 protein degradation assay (WB) in RAMOS cell line; type: cell-based; set-up: The RAMOS cell line was selected as the degradation cell line; endogenous in cells; host or cells: RAMOS; conditions: RAMOS cells, 16 h, Western blot
Experimental: Degradation of HPK1 proteins and DC50/Dmax were determined by the WB method in order to evaluate the in vitro degradative ability of the compound.
The RAMOS cell line was selected as the degradation cell line. Incubation Conditions: RMPI 1640 culture medium supplemented with 10% FBS, 37° C., 5% CO2.
• (1) Plating cells: in a 6 cm dish with 4 ml of the culture medium, cells plated at 2×10^6 cells/dish. • (2) Drug addition: the compound (stock solution concentration: 10 mM) was diluted with DMSO in a dilution plate, with a maximum starting concentration of 10 μM and 7 concentration gradient points (3-fold dilution). 4 μl of each diluted solution was taken, added to a dish, and incubated for 16 h. • (3) Cells were harvested, added with a lysis buffer, and centrifuged at 12000 rpm/min for 20 min. The supernatant was collected. After quantification using a BCA quantification kit, 5× loading buffer was added to denature for 10 min. • (4) 10 μg of denatured protein was added to the SDS-PAGE gel. After electrophoresis and membrane transfer, the plate was blocked with 5% BSA for 1 h, incubate with the primary antibody at 4° C. overnight. After washing off the primary antibody, the secondary antibody was added, incubated at room temperature for 1 h, and washed off.
Imaging: the membranes were scanned with a two-color fluorescence imaging system.

human HPK1 [2] = biological target: T1, human HPK1; experiment: Assay of in vitro HPK1 enzymatic activity (ADP-Glo); type: biochemical; conditions: 7 nM kinase, 20 uM ATP
Experimental: Compounds were evaluated for their ability to inhibit human HPK1 by IC50 determination using the ADP-Glo method to measure the kinase activity.
Buffer conditions of the enzyme: 50 mM Hepes (pH 7.5), 10 mM MgCl2, 1 mM EGTA, 0.01% Brij35, 2 mM DTT.
Preparation of the Kinase and substrate mixture: the working concentration of the kinase in the HPK1 reaction solution was 7 nM and the working concentration of ATP was 20 uM.
The compound was diluted with DMSO in a dilution plate, with a maximum starting concentration of 1 uM and 10 concentration gradient points (4-fold dilution).
Each of the above 10 concentration gradient points of the compound was then diluted 50-fold into the kinase reaction buffer and shaken on a shaker for 20 min. The kinase was prepared in an enzyme reaction buffer and 2 μl of the HPK1 kinase was added per well of the reaction plate at a HPK1 kinase concentration of 7 nM.
1 μl of diluted compound in the buffer was added per well, and the plate was sealed with a plate sealing film, centrifuged at 1000 g for 30 seconds, and left at room temperature for 10 minutes. An ATP solution was prepared with an enzyme reaction buffer and 2 μl of the ATP solution was added to the reaction plate (the working concentration of ATP was 20 uM). The plate was sealed with a plate sealing film, centrifuged at 1000 g for 30 seconds, and reacted at room temperature for 60 minutes. 4 μL of ADP-Glu was transferred to a 384 reaction plate, centrifuged at 1000 rpm/min for 1 min, and incubated at 25° C. for 40 min. 8 μL of the Detection solution was transferred to a 384 reaction plate, centrifuged at 1000 rpm/min for 1 min, and incubated at 25° C. for 40 min. The RLU (Relative luminescence unit) signal was read using a BMG microplate reader, and the signal intensity was used to characterize the activity level of the kinase.
The kinase activity data was expressed by comparing the kinase activity of the test compound and the blank group (containing only DMSO), and the IC50 value was obtained by curve fitting using the Prism software (GraphPad7.0).

[3] = Pharmacokinetics of single administration in mice; type: in vivo, Balb/c mice; set-up: Vz: unit not given here
Experimental: Female Balb/c mice (weighing 18-22 g) were fasted overnight prior to the experiment. The test compound was dissolved in the vehicle, DMSO:PEG400:30% captisol:HCl=5:20:70:5 (v/v/v/v), and administered by single oral gavage at a dose of 10 mg/kg or by intravenous injection at a dose of 2 mg/kg. Blood samples were collected from the orbital venous plexus at 15 minutes, 30 minutes, and 1, 2, 4, 6, 8, and 24 h after administration. Approximately 0.08 mL of blood was collected at each time point and placed in a 1.5 mL centrifuge tube containing EDTA-2K anticoagulant. Blood samples were centrifuged (3200 g, 10 min, 4° C.) within 2 h to obtain plasma samples. Plasma samples were frozen at −70° C. to −80° C. in an ultra-low temperature freezer prior to processing. Before sample processing, the plasma samples were taken out of the freezer. After thawing at room temperature, 20 μL of each plasma sample was added into a 96-well plate, and then 120 μL of acetonitrile containing an internal standard was added to precipitate proteins. […] The supernatant was taken and mixed with an equal volume of 0.1% aqueous formic acid solution for LC-MS/MS analysis.

[4] = female, Balb/c, mouse, plasma, iv 2 mg/kg
[5] = female, Balb/c, mouse, plasma, iv 2 mg/kg, read-out: AUC
[6] = female, Balb/c, mouse, plasma, po 10 mg/kg
[7] = female, Balb/c, mouse, plasma, po 10 mg/kg vs iv 2 mg/kg
[8] = female, Balb/c, mouse, plasma, po 10 mg/kg, read-out: AUC
[9] = female, Balb/c, mouse, plasma, po 10 mg/kg, read-out: Cmax

T1 sequence (Q92918 whole entry): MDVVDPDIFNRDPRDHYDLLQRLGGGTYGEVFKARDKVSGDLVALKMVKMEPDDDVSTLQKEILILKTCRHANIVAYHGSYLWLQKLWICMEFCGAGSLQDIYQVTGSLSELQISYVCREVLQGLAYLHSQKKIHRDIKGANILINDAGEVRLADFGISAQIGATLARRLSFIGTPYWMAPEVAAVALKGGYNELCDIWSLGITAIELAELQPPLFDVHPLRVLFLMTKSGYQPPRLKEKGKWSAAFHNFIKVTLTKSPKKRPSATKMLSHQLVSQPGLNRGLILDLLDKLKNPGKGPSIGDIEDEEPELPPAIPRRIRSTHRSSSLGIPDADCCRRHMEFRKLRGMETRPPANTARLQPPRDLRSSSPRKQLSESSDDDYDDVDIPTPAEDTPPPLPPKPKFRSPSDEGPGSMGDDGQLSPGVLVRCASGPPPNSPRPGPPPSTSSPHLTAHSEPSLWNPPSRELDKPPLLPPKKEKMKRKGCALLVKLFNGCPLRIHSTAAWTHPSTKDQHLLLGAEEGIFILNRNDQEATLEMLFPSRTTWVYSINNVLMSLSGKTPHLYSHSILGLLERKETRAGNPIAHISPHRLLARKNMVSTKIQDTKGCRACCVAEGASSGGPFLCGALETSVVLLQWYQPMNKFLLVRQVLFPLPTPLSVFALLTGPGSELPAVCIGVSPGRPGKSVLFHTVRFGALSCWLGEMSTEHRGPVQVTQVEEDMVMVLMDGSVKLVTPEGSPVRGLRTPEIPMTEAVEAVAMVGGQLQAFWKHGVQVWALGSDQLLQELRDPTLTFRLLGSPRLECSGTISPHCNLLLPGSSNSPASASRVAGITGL

DC50 (human HPK1 [1]) [nM]	Dmax (human HPK1 [1]) [%]	SMILES	also measured
1.21	93	CCN1CCC(n2cc(-c3c[nH]c4ncc(-c5ccc(N6CCC(CN7CCN(C(=O)c8ccc(Cl)c(N9CCC(=O)NC9=O)c8)CC7)CC6)nc5)nc34)cn2)CC1 [Compound C084]	–
214	64.4	CC(C)(C#N)n1cc(-c2c[nH]c3ncc(-c4ccc(N5CCC(CC6CCN(C(=O)c7ccc(Cl)c(N8CCC(=O)NC8=O)c7)CC6)CC5)nc4)nc23)cn1 [Compound C181]	–
–	93.8	O=C1CCN(c2cc(C(=O)N3CCC(CC4CCN(c5ccc(-c6cnc7[nH]cc(-c8cnn(CC(F)(F)F)c8)c7n6)cn5)CC4)CC3)ccc2Cl)C(=O)N1 [Compound C196]	–
30.6	76.1	COCCn1cc(-c2c[nH]c3ncc(-c4ccc(N5CCC(CC6CCN(C(=O)c7ccc(Cl)c(N8CCC(=O)NC8=O)c7)CC6)CC5)nc4)nc23)cn1 [Compound C201]	clearance [3, 4]: 6.58 mL/min/kg; half-life [3, 4]: 2.16 h; AUC [3, 5]: 5050 ng·h/mL; half-life [3, 6]: 2.63 h; bioavailability [3, 7]: 34.2%; AUC [3, 8]: 8660 ng·h/mL; Cmax [3, 9]: 4500 ng/mL; Vz ([3]; iv 2 mg/kg): 1230
89.9	83	CCc1c[nH]c2ncc(-c3ccc(N4CCC(CC5CCN(C(=O)c6ccc(Cl)c(N7CCC(=O)NC7=O)c6)CC5)CC4)nc3)nc12 [Compound C205]	–
23.9	66.8	O=C1CCN(c2cc(C(=O)N3CCC(CC4CCN(c5ccc(-c6cnc7[nH]cc(-c8cnn(C(F)F)c8)c7n6)cn5)CC4)CC3)ccc2Cl)C(=O)N1 [Compound C167]	–
198	50.7	Cn1cc(-c2c[nH]c3ncc(-c4ccc(N5CCC(CC6CCN(C(=O)c7ccc(Cl)c(N8CCC(=O)NC8=O)c7)CC6)CC5)cc4)nc23)cn1 [Compound C140]	–
5.99	91.7	Cn1cc(-c2c[nH]c3ncc(-c4cnc(N5CCC(CC6CCN(C(=O)c7ccc(Cl)c(N8CCC(=O)NC8=O)c7)CC6)CC5)nc4)nc23)cn1 [Compound C203]	–
23.5	66.4	CCN1CCC(n2cc(-c3c[nH]c4ncc(-c5ccc(N6CCC(CC7CCN(C(=O)c8ccc(Cl)c(N9CCC(=O)NC9=O)c8)CC7C)CC6)cc5)nc34)cn2)CC1 (stereo not drawn) [Compound C115]	–
83	83.8	O=C1CCN(c2cc(C(=O)N3CCC(CC4CCN(c5ccc(-c6cnc7[nH]cc(-c8cnn([C@@H]9CCOC9)c8)c7n6)cn5)CC4)CC3)ccc2Cl)C(=O)N1 [Compound C199]	–

More lines, now with the values behind:

SMILES	DC50 (human HPK1 [1]) [nM]	Dmax (human HPK1 [1]) [%]	also measured
CCN1CCC(n2cc(-c3c[nH]c4ncc(-c5ccc(OCCCNC(=O)c6cccc(N7CCC(=O)NC7=O)c6)c(C)c5)nc34)cn2)CC1 [Compound C042]	–	–	pIC50 (human HPK1 [2]): 8.68
CCN1CCC(n2cc(-c3c[nH]c4ncc(-c5ccc(OCCCCNC(=O)c6ccc(Cl)c(N7CCC(=O)NC7=O)c6)nc5)nc34)cn2)CC1 [Compound C038]	–	–	pIC50 (human HPK1 [2]): 7.66
CCN1CCC(n2cc(-c3c[nH]c4ncc(-c5cnc(N6CCN(C(=O)c7ccc(N8CCC(=O)NC8=O)cc7)CC6)c(C)c5)nc34)cn2)CC1 [Compound C001]	–	–	pIC50 (human HPK1 [2]): 8.28
CCN1CCC(n2cc(-c3c[nH]c4ncc(-c5cnc(N6CCN(CC7CN(C(=O)c8cccc(N9CCC(=O)NC9=O)c8)C7)CC6)c(C)c5)nc34)cn2)CC1 [Compound C011]	–	–	pIC50 (human HPK1 [2]): 9.15
CCN1CCC(n2cc(-c3c[nH]c4ncc(-c5cnc(N6CCN(CC7CCN(C(=O)c8cccc(N9CCC(=O)NC9=O)c8)CC7)CC6)c(C)c5)nc34)cn2)CC1 [Compound C002]	–	–	pIC50 (human HPK1 [2]): 8.59
CCN1CCC(n2cc(-c3c[nH]c4ncc(-c5ccc(OCC(C)(C)CNC(=O)c6ccc(Cl)c(N7CCC(=O)NC7=O)c6)nc5)nc34)cn2)CC1 [Compound C041]	–	–	pIC50 (human HPK1 [2]): 7.84
CCN1CCC(n2cc(-c3c[nH]c4ncc(-c5ccc(OCCNC(=O)c6ccc(Cl)c(N7CCC(=O)NC7=O)c6)cc5)nc34)cn2)CC1 [Compound C035]	–	–	pIC50 (human HPK1 [2]): 8.60
O=C1CCN(c2cc(C(=O)N3CCC(CC4CCN(c5ccc(-c6cnc7[nH]cc(-c8cn[nH]c8)c7n6)cn5)CC4)CC3)ccc2Cl)C(=O)N1 [Compound C198]	32.9	91.8	–
Cn1cc(-c2c[nH]c3ncc(-c4ccc(N5CCC(CC6CCN(C(=O)c7ccc(Cl)c(C8CCC(=O)NC8=O)c7)CC6)CC5)nc4)nc23)cn1 (stereo not drawn) [Compound C206]	190	73	–
O=C1CCN(c2cc(C(=O)N3CCC(CC4CCN(c5ccc(-c6cnc7[nH]cc(-c8cnn(CCF)c8)c7n6)cn5)CC4)CC3)ccc2Cl)C(=O)N1 [Compound C197]	5.28	77.5	clearance [3, 4]: 4.5 mL/min/kg; AUC ([3]; iv 2 mg/kg): 7397 ng·h/mL; Vz ([3]; iv 2 mg/kg): 917; t1/2 ([3]; iv 2 mg/kg): 2.35 h; AUC ([3]; po 10 mg/kg): 9202 ng·h/mL; Cmax ([3]; po 10 mg/kg): 4680 ng/mL; t1/2 ([3]; po 10 mg/kg): 3.18 h; F % ([3]; po 10 mg/kg vs iv 2 mg/kg): 25.1%
O=C1CCN(c2cc(C(=O)N3CCC(CC4CCN(c5ccc(-c6cnc7[nH]cc(-c8cnn(CC9CC9)c8)c7n6)cn5)CC4)CC3)ccc2Cl)C(=O)N1 [Compound C177]	632	51.6	–
Cc1ccc(C(=O)N2CCC(CC3CCN(c4ncc(-c5cnc6[nH]cc(-c7cnn(C)c7)c6n5)cn4)CC3)CC2)cc1N1CCC(=O)NC1=O [Compound C204]	58	85.4	–
CCN1CCC(n2cc(-c3c[nH]c4ncc(-c5ccc(N6CCC(F)(CN7CCN(C(=O)c8ccc(Cl)c(N9CCC(=O)NC9=O)c8)CC7)CC6)cc5)nc34)cn2)CC1 [Compound C137]	230	58.4	–
O=C1CCN(c2cc(C(=O)N3CCC(CC4CCN(c5ccc(-c6cnc7[nH]cc(-c8cnn(CC(F)F)c8)c7n6)cn5)CC4)CC3)ccc2Cl)C(=O)N1 [Compound C195]	18.7	80.7	clearance [3, 4]: 0.785 mL/min/kg; half-life [3, 4]: 2.41 h; AUC [3, 5]: 42500 ng·h/mL; half-life [3, 6]: 2.8 h; bioavailability [3, 7]: 20.7%; AUC [3, 8]: 44000 ng·h/mL; Cmax [3, 9]: 14300 ng/mL; Vz ([3]; iv 2 mg/kg): 164
O=C1CCC(c2cc(C(=O)N3CCC(CC4CCN(c5ccc(-c6cnc7[nH]cc(-c8cnn(CCO)c8)c7n6)cn5)CC4)CC3)ccc2Cl)C(=O)N1 (stereo not drawn) [Compound C209]	29	84	–
CCN1CCC(n2cc(-c3c[nH]c4ncc(-c5ccc(N6CCC(CC7CCCN(C(=O)c8ccc(Cl)c(N9CCC(=O)NC9=O)c8)CC7)CC6)nc5)nc34)cn2)CC1 (stereo not drawn) [Compound C085]	385	56.4	–
CCN1CCC(n2cc(-c3c[nH]c4ncc(-c5ccc(N6CCC(CC7CCN(C(=O)c8ccc(Cl)c(N9CCC(=O)NC9=O)c8)CC7)CC6)nc5)nc34)cn2)CC1 [Compound C092]	21.4	–	–

— patent US20260116884A1, “PROTAC CHIMERIC COMPOUND, PREPARATION METHOD THEREFOR AND USE THEREOF” (HANGZHOU ZHONGMEIHUADONG PHARMACEUTICAL CO., LTD., priority 2022, published 2026)
